Values after ≈ are worked out from the molar mass of the structure shown. Like-named read-outs stand apart in the source and are kept apart here.
Columns and labels:
S. aureus ATCC 29213 = test: In vitro susceptibility, broth microdilution MIC; type: cell-based, Staphylococcus aureus; conditions: Staphylococcus aureus, read-out: MIC
Experimental: The antimicrobial activities of PK inhibitor candidates were determined using the 96-well microtiter standard 2-fold serial broth microdilution method as described by CLSI (formerly NCCLS) with the various gram-positive and gram-negative bacteria species mentioned above. Bacteria from a single colony were grown, overnight in either BHI Broth (VRE), mueller hinton broth (S. aureus 29213; MRSA USA400) or L-broth (E. coli, P. aeruginosa, S. typhimuriu, K. Pneumonia and A. baumannii). […] Culture plates were incubated for 18-24 h at 37° C., and optical density at 600 nm (OD600) was measured using a Benchmark Plus™ microplate spectrophotometer (Bio-Rad™). The absorbance control values for the series containing CAMHB and inhibitor were subtracted as background from the corresponding infected wells. The MIC was defined as the lowest concentration of test compound leading to complete inhibition of cell growth in relationship to compound-free control wells as determined by optical density. […] All assays were run in triplicate (Tables 1-6) or duplicate. Experiments were replicated at least twice to verify reproducibility using the above conditions.

MRSA PK = target: T1, MRSA PK (Staphylococcus aureus, UniProt Q6GG09); test: MRSA PK activity, continuous LDH-coupled assay; type: biochemical, S. aureus (MRSA strain Sanger 252); conditions: for inhibition at 10 µM: read-out: % inhibition at the highest concentration tested (IC50)
T1 construct: His tag (pET-28a(+) vector) (N); made in house; host or cells: E. coli BL-21 (DE3)
T1 sequence (Q6GG09 whole entry): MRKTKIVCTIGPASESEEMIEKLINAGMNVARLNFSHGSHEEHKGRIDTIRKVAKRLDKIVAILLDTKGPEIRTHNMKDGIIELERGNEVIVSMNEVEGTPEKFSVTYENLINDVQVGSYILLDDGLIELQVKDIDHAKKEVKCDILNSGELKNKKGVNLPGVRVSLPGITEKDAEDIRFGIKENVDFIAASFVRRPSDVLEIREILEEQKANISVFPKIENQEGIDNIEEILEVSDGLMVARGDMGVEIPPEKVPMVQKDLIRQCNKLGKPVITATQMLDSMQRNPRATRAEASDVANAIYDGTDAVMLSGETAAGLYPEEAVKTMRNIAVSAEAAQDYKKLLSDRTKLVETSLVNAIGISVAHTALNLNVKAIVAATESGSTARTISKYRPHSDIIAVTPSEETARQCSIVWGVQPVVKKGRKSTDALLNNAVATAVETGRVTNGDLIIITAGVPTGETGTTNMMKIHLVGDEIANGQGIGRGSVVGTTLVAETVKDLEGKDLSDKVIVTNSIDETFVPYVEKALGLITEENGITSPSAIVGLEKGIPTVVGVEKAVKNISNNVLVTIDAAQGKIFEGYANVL
Description: Genomic DNA of MRSA strain Sanger 252 extracted using DNeasy Tissue Kit™ (Qiagen™) was used as a template to generate the His-tagged MRSA PK. Human cDNA from MCF-7 breast cancer cell line (courtesy of Dr. J Wong, BC Cancer Research Center (Vancouver, Canada) was used as a template to generate the full-length human M2 PK enzyme. The following primer sets were used creating appropriate restriction sites (NdeI and XhoI sites underlined): For cloning of MRSA PK: M27F 5′-[…]-3′ and M27R 5′-[…]-3′, for cloning of human M2 PK isoform: hM2F 5′-[…]-3′ and hM2R 5′-[…]-3′. The resulting PCR fragments for each construct were cloned into the NdeI and XhoI unique sites of the bacterial expression vector pET-28a (+) (Novagen™). […] The sequence and the correct reading frame of all constructs were verified by sequencing. Human M1, R and L PK constructs in pET-28-a(+) vectors (courtesy of Dr. L. Cantley, Harvard Medical, School (Boston, USA)) were used to generate relevant recombinant His-tagged human PK isoforms.
MRSA and human constructs in pET-28a(+) were used to express relevant recombinant PK proteins in E. coli BL-21 (DE3). The proteins were expressed and purified using Ni-NTA agarose (Qiagen™) according to the manufacturer's protocol. Briefly, cells were grown to an absorbance of 0.4-0.5 at 600 nm in 2×YT medium, then induced with 0.1 mM IPTG for 3 h at 20° C. Cells were lysed by sonication on ice (3×10-s bursts with a 30-s recovery between bursts) in lysis buffer (0.2 mg/ml lysozyme, 50 mM Tris pH 7.5, 10 mM MgCl2, 200 mM NaCl, 100 mM KCl, 10% glycerol, 10 mM imidazole, 0.5% NP-40 and 1 mM DTT containing Complete™ protease inhibitor). Cell lysates were cleared by centrifugation (18,000×g in a Beckman™ JA-20 rotor) for 20 min at 4° C. and PK isoforms were purified by batch binding to Ni-NTA resin. The resins were then packed in columns (1×2 cm) and washed with 400 column volumes lysis buffer containing 30 mM imidazole. His-tagged PK isoforms were eluted with the same buffer containing 300 mM imidazole. The proteins were dialyzed overnight at 4° C. against 2000 volumes of ice-cold 30 mM Tris pH 7.5, 25 mM KCl, 5 mM MgCl2, 10% glycerol and 1 mM DTT to remove imidazole. All purification steps were done at 4° C.; enzymes were flash-frozen and stored at −70° C. […] Purity and physical integrity of proteins were assessed using SDS-polyacrylamide gel electrophoresis (SDS-PAGE) followed by coomassie blue staining. Protein concentration was estimated by Bradford assay (Bio-Rad Protein Assay™) using bovine serum albumin as a standard.
Candidate MRSA PK inhibitors were assayed for their ability to inhibit enzymatic activities of MRSA and human PKs. PK activity was determined using a continuous assay coupled to lactate dehydrogenase (LDH) in which the change in absorbance at 340 nm owing to oxidation of NADH was measured using a Benchmark Plus™ microplate spectrophotometer (Bio-Rad Laboratories, Hercules, Calif.). […] Reactions were initiated by the addition of 15 nM of one of the PK enzymes. PK activity proportional to the rate of change at 340 nm was expressed as specific activity (μmol/min/mg), which is defined as the amount of PK that catalyzes the formation of one micromole of either product per minute. Inhibitors were dissolved in DMSO with the final concentration of the solvent never exceeding 1% of the assay volume. IC50 values were calculated by curve fitting on a four-parameter dose-response model with variable slope using Graphpad Prism 5.0™ (GraphPad™ Software Inc., La Jolla, Calif.). […] Reactions were performed at 30° C. for up to 5 min. All values determined represent at least two measurements, in triplicate (Tables 1-6) or duplicate unless mentioned otherwise.

[1] = ATCC29213, Tables 1-6 and text, minimum concentration to give >98% inhibition of growth
[2] = ATCC29213, Table 8, tested at least in duplicate, differing values all given

SMILES | IC50 (MRSA PK) | also measured
O=C(Nc1nc2ccccc2s1)c1cc(Br)ccc1O [Compound 56] |  | MIC (S. aureus ATCC 29213; [1]): > 64 µg/mL; inhibition at 10 µM (MRSA PK): 76%
Cc1csc(/C=C/c2cc3ccc(Br)cc3[nH]2)n1 [Compound 113, (E)-2-(2-(6-Bromo-1H-indol-2-yl)vinyl)-4-methylthiazole] | > 1000 nM | 
Cc1ncc(/C=C/c2cc3ccc(Br)cc3[nH]2)s1 [Compound 115, (E)-5-(2-(6-Bromo-1H-indol-2-yl)vinyl)-2-methylthiazole] | > 1000 nM | 
O=C(Nc1ccc(Br)cc1)c1cc2ccccc2[nH]1 [Compound 52] |  | MIC (S. aureus ATCC 29213; [1]): > 32 µg/mL; inhibition at 10 µM (MRSA PK): 67%
O=C(Nc1nc2ccc(Br)cc2s1)c1cccc(Br)c1O [Compound 70, 3-Bromo-N-(6-bromobenzo[d]thiazol-2-yl)-2-hydroxybenzamide] |  | MIC (S. aureus ATCC 29213; [1]): 4 µg/mL (≈ 9.34 µM); IC50 (MRSA PK; Tables 1-6, 2 mM ADP, 10 mM PEP, 15 nM PK, read-out: IC50): 42.9 nM
O=[N+]([O-])c1cc(/C=C/c2cc3ccc(Br)cc3[nH]2)ccc1Cl [Compound 97, (E)-6-Bromo-2-(4-chloro-3-nitrostyryl)-1H-indole] |  | MIC (S. aureus ATCC 29213; [2]): > 64 µg/mL; EC50 (MRSA PK): 8.6 nM
Brc1cncc(CCc2cc3ccc(Br)cc3[nH]2)c1 [Compound 121, 6-Bromo-2-(2-(5-bromopyridin-3-yl)ethyl)-1H-indole] | > 1000 nM | MIC (S. aureus ATCC 29213; [2]): > 64 µg/mL
Cc1csc(/C=C/c2cc3ccc(Br)cc3[nH]2)c1 [Compound 117, (E)-6-Bromo-2-(2-(4-methylthiophen-2-yl)vinyl)-1H-indole] | > 1000 nM | 
Brc1ccc(CCc2cc3ccc(Br)cc3[nH]2)cc1 [Compound 37b, 6-bromo-2-(4-bromophenethyl)-1H-indole] | 187 nM | 
Cn1c(-c2cc3ccccc3s2)nc2ccc(Br)cc21 [Compound 155, 2-(Benzo[b]thiophen-2-yl)-6-bromo-1-methyl-1H-benzo[d]imidazole] | 100 to 1000 nM | 
FC(F)(F)C1(c2ccc(-c3[nH]c4cc(Br)ccc4c3Cl)cc2)N=N1 [Compound 92, 6-bromo-3-chloro-2-(4-(3-(trifluoromethyl)-3H-diazirin-3-yl)phenyl)-1H-indole] | 110 nM | 
Cn1c(-c2cc3ccccc3s2)nc2cc(Br)ccc21 [Compound 156, 2-(Benzo[b]thiophen-2-yl)-5-bromo-1-methyl-1H-benzo[d]imidazole] | > 1000 nM | 
COC(=O)c1c(C#Cc2ncc(Cl)cn2)[nH]c2cc(Br)ccc12 [Compound 143, Methyl 6-bromo-2-((5-chloropyrimidin-2-yl)ethynyl)-1H-indole-3-carboxylate] | < 50 nM | 
COc1ccc(/C=C/c2[nH]c3cc(Br)ccc3c2C(=O)O)nc1 [Compound 151, (E)-6-Bromo-2-(2-(5-methoxypyridin-2-yl)vinyl)-1H-indole-3-carboxylic acid] | > 1000 nM | 
[N-]=[N+]=Nc1ccc2cc(-c3cc4ccc(Br)cc4[nH]3)[nH]c2c1 [Compound 88, 6-azido-6′-bromo-1H,1′H-2,2′-biindole] | 22.6 nM | 
Brc1ccc2[nH]c(-c3cc4ccccc4[nH]3)cc2c1 [Compound 10h, 5-Bromo-1H,1′H-2,2′-biindole] |  | inhibition at 10 µM (MRSA PK): 36%

SMILES | IC50 (MRSA PK) | also measured
Cn1c(C#Cc2cc3ccc(Br)cc3n2C)cc2ccc(Br)cc21 [Compound 26b, 1,2-bis(6-bromo-1-methyl-1H-indol-2-yl)ethyne] |  | inhibition at 10 µM (MRSA PK): 27%
CC(=O)c1c(/C=C/c2ccc(Cl)cc2)[nH]c2cc(Br)ccc12 [Compound 122, (E)-1-(6-Bromo-2-(4-chlorostyryl)-1H-indol-3-yl)ethanone] | 100 to 1000 nM | 
FC(F)(F)C1(c2ccc(-c3cc4ccc(Br)cc4[nH]3)cc2)N=N1 [Compound 94, 6-bromo-2-(4-(3-(trifluoromethyl)-3H-diazirin-3-yl)phenyl)-1H-indole] | 78.3 nM | 
O=C(c1c(/C=C/c2cn3ccccc3n2)[nH]c2cc(Br)ccc12)C(F)(F)F [Compound 176, (E)-1-(6-Bromo-2-(2-(imidazo[1,2-a]pyridin-2-yl)vinyl)-1H-indol-3-yl)-2,2,2-trifluoroethanone] | > 1000 nM | 
Cc1nc(/C=C/c2cc3ccc(Br)cc3[nH]2)co1 [Compound 112, (E)-4-(2-(6-Bromo-1H-indol-2-yl)vinyl)-2-methyloxazole] | > 100000 nM | 
Brc1ccc2cc(CCc3ccccc3)[nH]c2c1 [Compound 37a, 6-bromo-2-phenethyl-1H-indole] |  | inhibition at 4 µM (MRSA PK; read-out: % inhibition (IC50)): 56%
Brc1ccc2cc(C#Cc3ccccn3)[nH]c2c1 [Compound 140, 6-Bromo-2-(pyridin-2-ylethynyl)-1H-indole] | > 1000 nM | 
COc1ccc(C#Cc2cc3ccc(Br)cc3[nH]2)cn1 [Compound 144, 6-Bromo-2-((6-methoxypyridin-3-yl)ethynyl)-1H-indole] | > 1000 nM | 
FC(F)(F)C1(c2ccc(-c3cc4ccc(Br)cc4[nH]3)cc2)NN1 [Compound 89, 6-Bromo-2-(4-(3-(trifluoromethyl)diaziridin-3-yl)phenyl)-1H-indole] |  | inhibition at 10 µM (MRSA PK): 84%
COC(=O)c1c(C#Cc2cc3cc(Cl)ccc3[nH]2)[nH]c2cc(Br)ccc12 [Compound 145, Methyl 6-bromo-2-((5-chloro-1H-indol-2-yl)ethynyl)-1H-indole-3-carboxylate] | > 1000 nM | 
COc1ccc(/C=C/c2cc3ccc(Br)cc3[nH]2)cn1 [Compound 111, (E)-6-Bromo-2-(2-(6-methoxypyridin-3-yl)vinyl)-1H-indole] | > 1000 nM | 
COc1ccc(/C=C/c2[nH]c3cc(Br)ccc3c2C(=O)C(F)(F)F)nc1 [Compound 172, (E)-1-(6-Bromo-2-(2-(5-methoxypyridin-2-yl)vinyl)-1H-indol-3-yl)-2,2,2-trifluoroethanone] | > 1000 nM | 
[N-]=[N+]=Nc1ccc(-c2cc3ccc(Br)cc3[nH]2)cc1 [Compound 93, 2-(4-azidophenyl)-6-bromo-1H-indole] | 40.5 nM | 
Cc1ccc(/C=C/c2cc3ccc(Br)cc3[nH]2)o1 [Compound 114, (E)-6-Bromo-2-(2-(5-methylfuran-2-yl)vinyl)-1H-indole] | > 1000 nM | 
Cc1ccc(/C=C/c2cc3ccc(Br)cc3[nH]2)s1 [Compound 116, (E)-6-Bromo-2-(2-(5-methylthiophen-2-yl)vinyl)-1H-indole] | > 1000 nM | 
COC(=O)c1c(-c2cc3ccc(Br)cc3[nH]2)[nH]c2ccccc12 [Compound 90, methyl 6′-bromo-1H,1′H-[2,2′-biindole]-3-carboxylate] | 2.4 nM | 

— patent publication US20170216252A1, “ANTI-BACTERIAL PYRUVATE KINASE MODULATOR COMPOUNDS, COMPOSITIONS, USES AND METHODS” (SIMON FRASER UNIVERSITY, priority 2014, published 2017)
